Several values for one entry are separate records, joined by “and”; a condition that tells them apart may be missing. Equal entries are not always repeated. Where two headings read alike, the source gives them in different places.
Columns and labels:
[1] = format: in vitro ADME, mouse; settings: mouse, plasma
Protocol: (§1) The plasma stability of compound IB′ was determined using plasma from four species. Results for mouse, rat, dog and human are shown in Tables 5, 6, 7 and 8 respectively. Alvocidib and flumazenil were used as controls. In mouse, rat and human plasma, compound IB′ maintained 100% stability after 5 hour incubation. In dog plasma, approximately 90% of compound IB′ remained after 5 hours.

[2] = format: in vitro ADME, rat; settings: rat, plasma
Protocol: as §1

[3] = Human plasma stability; format: in vitro ADME; settings: human plasma
Protocol: The plasma stability of compound IB′ was determined using plasma from four species.

[4] = for MTDacute: female SHO SCID mice; for Body weight loss, peak: surviving mice
Protocol: Acute studies were performed in female SHO SCID mice using three animals per treatment group. […] Body weight measurements following oral dosing (FIGS. 2A-B) and intravenous (IV) dosing (FIG. 2C-D) were used, along with mortality and clinical observations to determine the maximum tolerated acute dose (MTDacute).

[5] = Protocol: Repeat dose toxicology studies were performed in female SHO SCID mice using 3 animals per treatment group. […] Body weight measurements of animals treated by oral (see FIGS. 3A-B) and intravenous (see FIG. 3C-D) dosing over the course of the 5-day repeat dosing period and subsequent 5-day observation period, along with mortality and clinical observations, were used to determine the maximum tolerated dosing schedule (MTDrepeat).
[6] = test system: MV4-11 mouse xenograft model of acute myeloid leukemia (AML); assay: Mouse xenograft efficacy study; format: in vivo; settings: MV4-11 xenograft
Protocol: The in vivo activity of compound IB′ was determined in a MV4-11 mouse xenograft model of acute myeloid leukemia (AML). Injection of 8×10^6 MV4-11 cells/mouse was followed by growth of tumors to approximately 100 mm^3. After tumors reached the appropriate size, mice were randomized into the following treatment groups: Vehicle, compound IB′ (7.5 mg/kg, qdx5x3), compound IB′ (2.5 mg/kg, qdx5x3), compound IB′ (0.1 mg/kg, qdx5x3) and […]. Vehicle and compound IB′ were administered orally, except in the last arm of compound IB′ (7.5 mg/kg, q7dx3), which was dosed intravenously.

[7] = test system: MCL-1 protein expression; assay: Mouse xenograft pharmacodynamic study; format: in vivo; settings: MV4-11 xenograft tumors, 48 hours post-treatment
Protocol: The in vivo pharmacodynamic activity of compound IB′ was determined in a MV4-11 mouse xenograft model of AML (FIG. 6A-B). Injection of 8×10^6 cells/mouse was followed by growth of tumors to approximately 100 mm^3. After tumors reached an appropriate size, mice were randomized into the following treatment groups: Vehicle, compound IB′ (2.5 mg/kg), compound IB′ (0.5 mg/kg), compound IB′ (0.1 mg/kg), compound IB′ (0.02 mg/kg). Mice were administered a single treatment dose and tumors were harvested 48 hours post-treatment. MCL-1 protein levels were assessed on harvested tumors using standard polyacrylamide gel electrophoresis and immunoblotting technique (FIG. 6A).

[8] = CD-1, mouse, in vivo
[9] = physchem; settings: kinetic from dmso stock
[10] = Maximum tolerated acute dose in rats
Protocol: Acute (i.e. single dose) toxicology studies were performed in rats. Acute studies were performed in female Sprague Dawley rats using three animals per treatment group. […] Body weight measurements following oral dosing (see FIG. 4A), along with mortality, clinical observations, food consumption (see FIG. 4B), and complete blood counts (CBCs; see Table 12) were used to determine the maximum tolerated acute dose (MTDacute).

[11] = rats, single oral dose 4.5 mg/kg
[12] = rats, single oral dose 18 mg/kg

## CN1CC[C@H](c2c(OP(=O)(O)O)cc(O)c3c(=O)cc(-c4ccccc4Cl)oc23)[C@H](O)C1 [Compound IB′, 2-(2-chlorophenyl)-5-hydroxy-8-(3-hydroxy-1-methylpiperidin-4-yl)-4-oxo-4H-chromen-7-yl dihydrogen phosphate]
[1]; 0 h
  % Remaining: 100.00%
[1]; 0.5 h
  % Remaining: 88.48%
[1]; 1 h
  % Remaining: 89.83%
[1]; 2 h
  % Remaining: 97.71%
[1]; 3 h
  % Remaining: 99.61%
[1]; 4 h
  % Remaining: 100.46%
[2]; 0 h
  % Remaining: 100.00%
[2]; 0.5 h
  % Remaining: 97.39%
[2]; 1 h
  % Remaining: 94.60%
[2]; 2 h
  % Remaining: 100.04%
[2]; 3 h
  % Remaining: 107.48%
[2]; 4 h
  % Remaining: 100.20%
[3]; 0 hours
  % Remaining: 100.00%
[3]; 0.5 hours
  % Remaining: 96.32%
[3]; 1 hour
  % Remaining: 88.01%
[3]; 2 hours
  % Remaining: 104.22%
[3]; 3 hours
  % Remaining: 102.59%
[3]; 4 hours
  % Remaining: 94.36%
[3]; 5 hours
  % Remaining: 100% and 100.26%
[4]; single dose, dosed intravenously
  MTDacute: 15 mg/kg
[4]; single dose, dosed orally
  MTDacute: 15 mg/kg
[4]; mice, 15 mg/kg intravenous dosing group, single dose
  Minor body weight loss, peak: 3.3%
[4]; mice, single dose 30 mg/kg and 45 mg/kg
  clinical observations: Body weight loss and increased lethargy were observed
[4]; mice, single dose orally or intravenously at 15 mg/kg or 7.5 mg/kg
  overt toxicity: No overt toxicity was observed
[4]; mice, single intravenous dose 30 mg/kg
  mortality: one animal died on day three
[4]; mice, single intravenous dose 45 mg/kg
  mortality: two animals died on day two
[4]; mice, single oral dose 30 mg/kg
  mortality: one animal died on day four
[4]; mice, single oral dose 45 mg/kg
  mortality: one animal died on day two and one animal died on day three
[4]; single dose intravenously
  Body weight loss, peak: 12%
[4]; single oral dose, 30 mg/kg group
  Body weight loss, peak: 17%
[5]; female SHO SCID mice, five daily doses, dosed intravenously
  MTDrepeat: 15 mg/kg
[5]; mice, five daily doses, orally 7.5 or 2.5 mg/kg, or any dose level intravenously
  overt toxicity: No overt toxicity was observed
[5]; mice, five daily oral doses 15 mg/kg
  mortality: one animal died on day 5, and one animal died on day 7
[5]; surviving mice, five daily oral doses 15 mg/kg
  Body weight loss, peak: 12%
[6]; 2.5 mg/kg, qdx5x3, orally
  Tumor Growth Inhibition: 12%
[6]; 7.5 mg/kg, q7dx3, intravenously
  Tumor Growth Inhibition: 74%
[6]; 7.5 mg/kg, qdx5x3, orally
  Tumor Growth Inhibition: 69%
[7]; single dose 0.02 mg/kg
  Reduction of MCL-1 Expression: 0.0%
[7]; single dose 0.1 mg/kg
  Reduction of MCL-1 Expression: 46%
[7]; single dose 0.5 mg/kg
  Reduction of MCL-1 Expression: 61%
[7]; single dose 2.5 mg/kg
  Reduction of MCL-1 Expression: 54%
[8]
  Bioavail.: 182.3 ± 20.0 % F
[9]; pH 2.2, aqueous buffer
  solubility kinetic: > 1000 µg/mL
[9]; pH 2.2, aqueous buffer, Solubility
  solubility: 1900 µg/mL
[9]; pH 6.8, aqueous buffer
  solubility kinetic: > 5000 µg/mL
[9]; pH 8.7, aqueous buffer
  solubility kinetic: > 5000 µg/mL
[10]; female Sprague Dawley rats, single oral dose
  MTDacute: 18 mg/kg
[10]; female, Sprague Dawley, rat, in vivo, po
  NOAEL: 18 mg/kg
[10]; [11]
  HCT: 49.9%
  MCH: 19.7 pg
  MCHC: 35.9 g/dL
  MCV: 54.8 fL
  PLT: 37.1 10^3/μL
  RBC: 9.1 10^6/μL
  RDWA: 16.2 fL
  WBC: 17.9 10^3/μL
[10]; rats, single oral dose 9 mg/kg
  HCT: 42.7%
  MCH: 19.5 pg
  MCHC: 36.6 g/dL
  MCV: 53.3 fL
  PLT: 35.0 10^3/μL
  RBC: 8.0 10^6/μL
  RDWA: 15.9 fL
  WBC: 15.6 10^3/μL
  platelet counts versus normal range: outside the normal range
[10]; [12]
  HCT: 31.2%
  MCH: 19.6 pg
  MCHC: 36.6 g/dL
  MCV: 53.5 fL
  PLT: 33.9 10^3/μL
  RBC: 5.9 10^6/μL
  RDWA: 15.7 fL
  WBC: 11.4 10^3/μL
  abnormal food consumption patterns: not observed
  red and white blood cell counts: Slightly reduced
[10]; rats, single oral dose 36 mg/kg, preceding death
  Body weight loss: 13.1%
[10]; rats, single oral dose 18, 9, or 4.5 mg/kg
  overt toxicity: No overt toxicity, including body weight change or diarrhea, was observed

— US12338261B2 (SUMITOMO PHARMA ONCOLOGY, INC., priority 2015, dated 2025)
